Biological target: T1, polycystin-2 (Homo sapiens, UniProt Q13563, C331S/C344S)
T1 construct: expressed in transfected cells
T1 sequence (Q13563 1-968 C331S/C344S): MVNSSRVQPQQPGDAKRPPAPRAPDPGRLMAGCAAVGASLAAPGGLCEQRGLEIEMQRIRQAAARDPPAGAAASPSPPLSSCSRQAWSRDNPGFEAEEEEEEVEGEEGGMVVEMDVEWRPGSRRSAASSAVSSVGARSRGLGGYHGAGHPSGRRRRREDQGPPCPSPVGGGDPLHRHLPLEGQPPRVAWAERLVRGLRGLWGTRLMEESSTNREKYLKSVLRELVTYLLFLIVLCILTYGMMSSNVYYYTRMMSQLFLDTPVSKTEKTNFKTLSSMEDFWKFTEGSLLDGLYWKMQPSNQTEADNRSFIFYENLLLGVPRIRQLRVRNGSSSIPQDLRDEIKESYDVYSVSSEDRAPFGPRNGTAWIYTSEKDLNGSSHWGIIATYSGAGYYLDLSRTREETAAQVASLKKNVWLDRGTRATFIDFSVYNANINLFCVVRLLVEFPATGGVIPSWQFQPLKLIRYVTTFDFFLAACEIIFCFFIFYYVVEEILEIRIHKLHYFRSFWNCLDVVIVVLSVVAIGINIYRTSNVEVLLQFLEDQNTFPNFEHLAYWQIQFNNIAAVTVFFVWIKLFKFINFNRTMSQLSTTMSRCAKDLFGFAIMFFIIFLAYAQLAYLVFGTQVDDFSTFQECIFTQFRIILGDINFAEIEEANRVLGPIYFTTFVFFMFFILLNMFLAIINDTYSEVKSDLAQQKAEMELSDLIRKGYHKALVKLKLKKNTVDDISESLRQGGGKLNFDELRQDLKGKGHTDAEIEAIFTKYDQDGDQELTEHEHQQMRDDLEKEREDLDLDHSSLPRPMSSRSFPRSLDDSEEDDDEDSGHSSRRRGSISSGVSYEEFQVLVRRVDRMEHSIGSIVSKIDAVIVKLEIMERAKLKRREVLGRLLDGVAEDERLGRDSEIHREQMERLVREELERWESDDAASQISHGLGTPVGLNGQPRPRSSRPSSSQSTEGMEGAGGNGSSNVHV
Format: cell-based
Conditions: C331S:C334S double mutant

SMILES: [Gd] [gadolinium]
- Effect on C331S:C334S channel cilia current: retaining its sensitivity to pore block

From patent publication US20210369677A1, “SMALL MOLECULE ACTIVATORS OF POLYCYSTIN-2 (PKD2) AND USES THEREOF” (Northwestern University, priority 2020, published 2021)
